According to patent publication US20230065495A1, “MULTIPARTITE AND CIRCULARLY PERMUTED BETA-BARREL POLYPEPTIDES AND METHODS FOR THEIR USE” (University of Washington, priority 2020, published 2023):
Values joined by “and” are separate entries in the source; they are usually repeats but may differ in a detail not shown here. Equal entries are not always repeated. Marks after values point to notes of the source that are not given here. Blank lines part the entries; values can stand above or below the molecule they belong to. Ends that are not written are not given here.

B1: MBP-tagged split mFAP fragment m13 (β-strands 1-3 of mFAP2a) (designed binder, not shown: large carriers)
chain: SRAAQLLPGTWQATFTNEDGQTSQGQWHFQPRSPYTMDIVAQGTIS
modifications: also: MBP-tagged (side and linker not given here)
B3: MBP-tagged split mFAP fragment m14 (β-strands 1-4 of mFAP2a) (designed binder, not shown: large carriers)
chain: SRAAQLLPGTWQATFTNEDGQTSQGQWHFQPRSPYTMDIVAQGTISDGRPIVGYGKATVKTP
B4: MBP-tagged split mFAP fragment m38 (β-strands 3-8 of mFAP2a) (designed binder, not shown: large carriers)
chain: YTMDIVAQGTISDGRPIVGYGKATVKTPDTLDIDITYPSLGNIKAQGQITMDSPTQFKWDATTKGENDFHGRLTGTLQRQE
B5: MBP-tagged split mFAP fragment m58 (β-strands 5-8 of mFAP2a) (designed binder, not shown: large carriers)
chain: DTLDIDITYPSLGNIKAQGQITMDSPTQFKWDATTKGENDFHGRLTGTLQRQE
modifications: also: MBP-tagged (side and linker not given here)
B6: MBP-tagged split mFAP fragment m12 (β-strands 1-2 of mFAP2a) (designed binder, not shown: large carriers)
chain: SRAAQLLPGTWQATFTNEDGQTSQGQWHFQPRSP
modifications: also: MBP-tagged (side and linker not given here)
B7: MBP-tagged split mFAP fragment m48 (β-strands 4-8 of mFAP2a) (designed binder, not shown: large carriers)
chain: DGRPIVGYGKATVKTPDTLDIDITYPSLGNIKAQGQITMDSPTQFKWDATTKGENDFHGRLTGTLQRQE

Key:
[1] = cited from earlier work; for Extinction Coefficient / Reported Quantum Yield / λabs, peak absorbance wavelength / λem, peak emission wavelength / λex, peak excitation wavelength: previously reported value
[2] = target: B7; experiment: split mFAP self-complementation, MBP-tagged fragments mixed equimolar with excess DFHBI-1T, fluorescence endpoint (n=3)
Procedure: (§1) To measure fluorescence intensities in complementation assays (FIG. 1b), fluorescence was measured on a Synergy Neo2 hybrid multi-mode reader (BioTek) in flat bottom, black polystyrene, non-binding surface 96-well half-area microplates (Corning 3686). Each split mFAP fragment covalently fused to maltose binding protein (MBP) was purified by large-scale protein purification in high salt Tev cleavage buffer⁹. In technical triplicate, 12.0 μL of each MBP-tagged split mFAP fragment was mixed to an equimolar concentration supplemented with 1.00 μL of 1.25 mM DFHBI-1T (Lucerna) at 25.0 μL final volumes per well. Fluorescence endpoints were measured using excitation wavelength λₑₓ=478 nm and emission wavelength λₑₘ=520 nm. In technical triplicate, background fluorescence endpoints of wells with identical chromophore concentrations lacking protein (substituted for equivalent volumes of high salt Tev cleavage buffer) were measured, and the mean fluorescence endpoints were subtracted from the mean fluorescence endpoints of samples containing protein (FIG. 1b).

[3] = cpmFAP fluorescence intensity assay; type: biochemical; conditions: equimolar concentration, excess DFHBI-1T
Procedure: To measure the fluorescence intensities of cpmFAPs (FIG. 4b,d), fluorescence endpoints were measured on a Synergy Neo2™ hybrid multi-mode reader (BioTek) in flat bottom, black polystyrene, non-binding surface 96-well microplates (Corning 3650) or half-area microplates (Corning 3686). […]

[4] = target: B5; experiment: split mFAP self-complementation, MBP-tagged fragments mixed equimolar with excess DFHBI-1T, fluorescence endpoint (n=3)
Procedure: as §1

[5] = target: B6; experiment: β-barrel self-complementation assay, equimolar MBP-tagged fragments in excess DFHBI-1T
Procedure: as §1

[6] = target: B6; experiment: β-barrel self-complementation assay, equimolar MBP-tagged fragments in excess DFHBI-1T; reference is m1 with m28
Procedure: as §1

[7] = target: B6; experiment: fluorescence complementation titration: MBP-tagged m38 titrated into fixed MBP-tagged m12 in 25.0 µM DFHBI-1T; signal did not plateau, Kd is at least the highest titrant concentration
Procedure: (§2) Split mFAP fragment affinities (FIG. 1d,e,f,g) were estimated by preparing MBP-tagged split mFAP fragments by large-scale protein purification in high salt Tev cleavage buffer⁹, with 25.0 μM DFHBI-1T final concentration at 28.0 μL final volumes per well in flat bottom, black polystyrene, non-binding surface 96-well half-area microplates (Corning 3686). 3.00 μL of either 132 μM m12, 122 μM m14, 101 μM m16, or 84.9 μM m17 in high salt Tev cleavage buffer was mixed with 3.00 μL of 150 μM DFHBI-1T in high salt Tev cleavage buffer. For each split mFAP fragment, 12.0 μL of the complementary split mFAP fragment in high salt Tev cleavage buffer (the titrant) was mixed in from eleven serial dilutions (\sqrt{10} dilution factor) starting from 422 μM m38, 33.0 μM m58, 348 μM m78, or 531 μM m8 stock solutions, respectively, including a twelfth condition without titrant. Fluorescence endpoints were measured on a Synergy Neo2 hybrid multi-mode reader (BioTek) using excitation wavelength λₑₓ=468 nm and emission wavelength λₑₘ=530 nm. For each titration, the fluorescence intensity of the condition without titrant was subtracted from the fluorescence intensities of samples containing titrant, then the background subtracted data was normalized from 0 to 1. […]

[8] = target: B3; experiment: fluorescence complementation titration: MBP-tagged m58 titrated into fixed MBP-tagged m14 in 25.0 µM DFHBI-1T; signal did not plateau, Kd is at least the highest titrant concentration
Procedure: as §2

[9] = target: T1, MBP-tagged split mFAP fragment m17 (β-strands 1-7 of mFAP2a); experiment: fluorescence complementation titration: MBP-tagged m8 titrated into fixed MBP-tagged m17 in 25.0 µM DFHBI-1T; signal did not plateau, Kd is at least the highest titrant concentration
T1 chain: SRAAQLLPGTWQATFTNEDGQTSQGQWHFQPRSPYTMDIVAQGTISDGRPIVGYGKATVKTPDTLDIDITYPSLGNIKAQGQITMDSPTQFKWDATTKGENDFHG
Procedure: as §2

[10] = target: B4; experiment: split mFAP self-complementation, MBP-tagged fragments mixed equimolar with excess DFHBI-1T, fluorescence endpoint (n=3)
Procedure: as §1

[11] = target: T2, MBP-tagged split mFAP fragment m15 (β-strands 1-5 of mFAP2a); experiment: β-barrel self-complementation assay (fluorescence of DFHBI-1T)
T2 chain: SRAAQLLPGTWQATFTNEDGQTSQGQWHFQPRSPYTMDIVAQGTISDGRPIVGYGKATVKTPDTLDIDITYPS
Procedure: as §1

[12] = target: T3, MBP-tagged split mFAP fragment m16 (β-strands 1-6 of mFAP2a); experiment: fluorescence complementation titration: MBP-tagged m78 titrated into fixed MBP-tagged m16 in 25.0 µM DFHBI-1T; signal did not plateau, Kd is at least the highest titrant concentration
T3 chain: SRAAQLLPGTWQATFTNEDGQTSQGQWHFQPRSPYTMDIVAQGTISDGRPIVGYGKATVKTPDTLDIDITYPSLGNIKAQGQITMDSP
Procedure: as §2

[13] = target: B1; experiment: β-barrel self-complementation assay (fluorescence of DFHBI-1T)
Procedure: as §1

Molecule: Cc1cc2cc3cc(C)c(N)cc3nc2cc1N.Cl [Acridine Yellow G]
- quantum yield value of reference dye ([1]; in methanol): 0.57

Molecule: CC1=NC(=Cc2cc(F)c(O)c(F)c2)C(=O)N1C [DFHBI, 3,5-difluoro-4-hydroxybenzylidene imidazolinone]
- Absolute Quantum Yield ([1]; marked previously reported value): 0.001^#
- Extinction Coefficient [1]: 30,100^¶ M^−1, cm^−1 and 31,935^# M^−1, cm^−1
- Reported Quantum Yield [1]: 0.0007^¶
- λabs, peak absorbance wavelength [1]: 418^¶ nm
- λem, peak emission wavelength [1]: 489^¶ nm
- λex, peak excitation wavelength [1]: 423^¶ nm

Molecule: CC1=N/C(=C\c2cc(F)c(O)c(F)c2)C(=O)N1CC(F)(F)F [DFHBI-1T, (Z)-4-(3,5-difluoro-4-hydroxybenzylidene)-2-methyl-1-(2,2,2-trifluoroethyl)-1H-imidazol-5(4H)-one]
- Extinction Coefficient [1]: 35,400^¶ M^−1, cm^−1
- Reported Quantum Yield [1]: 0.00098^¶
- λabs, peak absorbance wavelength [1]: 422^¶ nm
- λem, peak emission wavelength [1]: 495^¶ nm
- λex, peak excitation wavelength [1]: 426^¶ nm

Molecule: B1
- binding result [2]: binds

B2: cp35-34_mFAP2a_12: circularly permuted mFAP, SEQ ID NO: 341; brightest cpmFAP tested (protein)
chain: QEMDIVAQGTISDGRPIVGYGKATVKTPDTLDIDITYPSLGNIKAQGQITMDSPTQFKWDATTKGENDFHGRLTGTLQRTEEAKEATEEARRRGITTQAAQLLPGTWQATFTNEDGQTSQGQWHFQPRDG
- fluorescence intensity relative to mFAP2a [3]: ~93%

Molecule: B3
- binding result [4]: binds

Molecule: B4
- mean fluorescence intensity over mean background fluorescence intensity (fold) [5]: 7.34 fold
- background-subtracted mean fluorescence intensity relative to the m1 and m28 combination (fold) [6]: 184 fold
- Kd [7]: ≥ 281 µM

Molecule: B5
- Kd [8]: ≥ 22 µM

- Kd [9]: ≥ 354 µM
Molecule: RLTGTLQRQE (designed binder, not shown: large carriers, also: MBP tag fused, side and linker not given here) [MBP-tagged split mFAP fragment m8 (β-strand 8 of mFAP2a)]

Molecule: B6
- binding result [10]: binds

- binding result [11]: binds
Molecule: LGNIKAQGQITMDSPTQFKWDATTKGENDFHGRLTGTLQRQE (designed binder, not shown: large carriers, also: MBP tag fused, side and linker not given here) [MBP-tagged split mFAP fragment m68 (β-strands 6-8 of mFAP2a)]

- Kd [12]: ≥ 232 µM
Molecule: TQFKWDATTKGENDFHGRLTGTLQRQE (designed binder, not shown: large carriers, also: MBP tag fused, side and linker not given here) [MBP-tagged split mFAP fragment m78 (β-strands 7-8 of mFAP2a)]

Molecule: B7
- binding result [13]: binds
